Measured values: ChEMBL document CHEMBL1201862, “PubChem BioAssay data set” (2004)
Active and inactive are the calls of the source.

Experiments:
[1] = growth induction of Burl-1 ts yeast mutant, dose response, counter-screen for SUMOylation pathway inhibitor project, whole organism, S. cerevisiae, luminescence (AID 463199); assay type: functional
HeLa = assay: HeLa cell cytotoxicity, dose response, cytotoxicity control for MITF activator project, CellTiter-Glo luminescence, cherry-pick samples (AID 540259); assay type: functional, cell-based; conditions: Homo sapiens
[2] = HEp-2 cell cytotoxicity, dose response, cytotoxicity control for RSV inhibitor project, HTS (AID 2410); assay type: functional; conditions: human respiratory syncytial virus
Vero = assay: cells; assay type: functional, cell-based; conditions: Chlorocebus sabaeus
A-375 [3] = assay: MITF: Counter assay: A375 proliferation Measured in Cell-Based System Using Plate Reader - 2084-03_Inhibitor_Dose_DryPowder_Activity. [Related pubchem assays (depositor defined):AID488944]; assay type: functional; conditions: Homo sapiens
A-375 [4] = assay: A375 melanoma cell viability reduction, dose response, counter-screen for MITF modulator project, cherry-pick samples, set 2 (AID 540335); assay type: functional, cell-based; conditions: Homo sapiens
HEK293 [5] = assay: cells; assay type: functional, cell-based; conditions: Homo sapiens
[6] = target: T1, Microphthalmia-associated transcription factor (Homo sapiens, UniProt O75030); assay: TRPM1 promoter luciferase signal decrease, dose response, MITF inhibitor project, cell-based, SK-MEL-5, cherry-picked, set 3 (AID 493073); assay type: functional
T1 sequence (O75030 whole entry): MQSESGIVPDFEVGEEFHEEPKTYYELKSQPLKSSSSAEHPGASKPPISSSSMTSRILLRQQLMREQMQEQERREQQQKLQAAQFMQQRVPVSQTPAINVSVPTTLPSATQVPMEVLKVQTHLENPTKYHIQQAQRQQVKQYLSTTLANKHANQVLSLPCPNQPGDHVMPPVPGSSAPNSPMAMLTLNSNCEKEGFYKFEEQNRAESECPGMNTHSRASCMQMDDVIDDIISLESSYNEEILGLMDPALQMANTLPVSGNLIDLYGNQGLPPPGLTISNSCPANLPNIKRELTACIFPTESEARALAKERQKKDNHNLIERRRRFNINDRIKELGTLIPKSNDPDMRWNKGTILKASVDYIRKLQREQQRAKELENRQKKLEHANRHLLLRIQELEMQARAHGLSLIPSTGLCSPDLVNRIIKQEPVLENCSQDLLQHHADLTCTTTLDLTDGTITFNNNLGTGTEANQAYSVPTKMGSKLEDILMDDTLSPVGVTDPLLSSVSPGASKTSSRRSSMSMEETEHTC

HEK293 [7] = assay: SAR Analysis of small molecule inhibitors of T-cell specific antigen receptor-induced NF-kB activation in a HEK-293T cell line using a luminescence assay - Set 2. [Related pubchem assays (depositor defined):AID435003, AID435012, AID489026]; assay type: functional, cell-based; conditions: Homo sapiens
Jurkat = assay: SAR Analysis of small molecule inhibitors of T-cell specific antigen receptor-induced NF-kB activation in a Jurkat cell line using a luminescence assay - Set 2. [Related pubchem assays (depositor defined):AID435003, AID435012, AID465]; assay type: functional, cell-based; conditions: Homo sapiens
[8] = target: Nucleotide-binding oligomerization domain-containing protein 2 (Homo sapiens, UniProt Q9HC29); assay: NOD2 signaling inhibitors, cell-based, luminescence, uHTS, HEK293 (AID 1566); assay type: functional
HEK293 [9] = assay: cells; assay type: functional, cell-based; conditions: Homo sapiens; remark: listed apart in the source
HEK293 [10] = assay: NOD1 signaling inhibitors, primary screen, cell-based, luminescence, uHTS (AID 1578); assay type: functional; conditions: Homo sapiens
HEK293 [11] = assay: cytotoxicity in HEK293T NF-kB-Luc cells, SAR follow-up, cytotoxicity control for NF-kB activator project, cell-based, resazurin fluorescence (AID 493251); assay type: functional; conditions: Homo sapiens
HEK293 [12] = assay: cells; assay type: functional, cell-based; conditions: Homo sapiens; remark: listed apart in the source
HEK293 [13] = assay: NOD2 signaling inhibitors in MDP-stimulated cells, cell-based, uHTS, luminescence (AID 2001); assay type: functional; conditions: Homo sapiens
[14] = target: Dual specificity protein kinase CLK1 (Homo sapiens, UniProt P49759); assay: CLK1 kinase inhibitors, off-target check, dose response, selectivity assay for Dyrk1A inhibitor project, biochemical, cherry-picked samples (AID 588811)
Escherichia coli [15] = assay: microbe, parasite or virus in culture
[16] = target: Glycogen synthase kinase-3 beta (Homo sapiens, UniProt P49841); assay: Inhibition of Human GSK-3 beta Activity Measured in Biochemical System Using Microfluidics - 2063-05_Inhibitor_Dose_DryPowder_Activity. [Related pubchem assays (depositor defined):AID2709]
[17] = target: Glycogen synthase kinase-3 alpha (Homo sapiens, UniProt P49840); assay: Inhibition of Human GSK-3 alpha Activity Measured in Biochemical System Using Microfluidics - 2063-06_Inhibitor_Dose_DryPowder_Activity. [Related pubchem assays (depositor defined):AID2709]
CAAX prenyl protease 2 = CAAX prenyl protease 2 (Homo sapiens, UniProt Q9Y256); assay: human Rce1 protease inhibitors, dose response, biochemical, yeast membranes, quenched-peptide fluorescence, cherry-pick (AID 588849)
CAAX prenyl protease 1 = CAAX prenyl protease 1 (Saccharomyces cerevisiae S288c, UniProt P47154); assay: Ste24 protease inhibitors, dose response, biochemical, S. cerevisiae, plate reader, cherry-pick (AID 488815)
Trypsin = Trypsin (Sus scrofa, UniProt P00761); assay: porcine trypsin inhibitors, dose response, selectivity assay for Rce1 protease inhibitor project, biochemical, quenched peptide fluorescence, cherry-pick (AID 488789)
[18] = target: T2, Mannose-6-phosphate isomerase (Homo sapiens, UniProt P34949); assay: PMI enzyme inhibitors, confirmation, biochemical, fluorescence intensity (AID 1535)
T2 sequence (P34949 whole entry): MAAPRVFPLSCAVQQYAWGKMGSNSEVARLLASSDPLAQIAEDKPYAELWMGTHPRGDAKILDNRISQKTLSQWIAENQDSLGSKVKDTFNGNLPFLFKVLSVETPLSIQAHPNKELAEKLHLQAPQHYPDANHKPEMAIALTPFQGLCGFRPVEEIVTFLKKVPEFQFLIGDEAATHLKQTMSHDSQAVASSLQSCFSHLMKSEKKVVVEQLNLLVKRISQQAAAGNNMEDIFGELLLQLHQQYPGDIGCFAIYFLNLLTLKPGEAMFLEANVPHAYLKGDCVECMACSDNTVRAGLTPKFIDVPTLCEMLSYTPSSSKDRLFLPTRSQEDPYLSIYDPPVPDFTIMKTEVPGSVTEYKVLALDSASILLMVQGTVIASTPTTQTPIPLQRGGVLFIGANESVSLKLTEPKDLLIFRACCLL

[19] = target: Phosphoethanolamine/phosphocholine phosphatase (Homo sapiens, UniProt Q8TCT1); assay: SAR assay for compounds that inhibit PHOSPHO1. [Related pubchem assays (depositor defined):AID1545, AID1565, AID1574]
Phosphomannomutase 2 = Phosphomannomutase 2 (Homo sapiens, UniProt O15305); assay: Counter screen SAR assay for PMM2 inhibitors via a fluorescence intensity assay. [Related pubchem assays (depositor defined):AID1545, AID1574]
Escherichia coli [20] = assay: microbe, parasite or virus in culture; remark: listed apart in the source
[21] = inhibitors of Trypanosoma cruzi host-cell infection, confirmation, beta-gal luminescence, NIH3T3 host cells (AID 2630); assay type: functional, cell-based; conditions: Mus musculus
INS1 = assay: protection of INS-1E cells from cytokine death, dose response, ATP luminescence, dry powder (AID 488844); assay type: functional, cell-based; conditions: Rattus norvegicus
[22] = target: Dual specificity protein phosphatase 3 (Homo sapiens, UniProt P51452); assay: SAR VHR1 Fluorescent Assay for In Vitro dose response studies Set 3. [Related pubchem assays (depositor defined):AID1654, AID1661, AID1878]; assay type: functional
[23] = Luminescence Cell-Based Dose Confirmation HTS to Identify Inhibitors of Platelet Dense Granule Release. [Related pubchem assays: 1663 (Primary HTS), 1678 (Summary of Project)]; assay type: functional
BJ [24] = assay: cytotoxicity toward BJ-TERT-LT-ST fibroblasts, dose response, cell-based, RAS-independent, luminescence (AID 1935); assay type: functional; conditions: Homo sapiens;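 note: BJ fibroblasts immortalized with TERT plus LT and ST oncogenes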
[25] = target: Delta-type opioid receptor (Homo sapiens, UniProt P41143); assay: Counterscreen for agonists of heterodimerization of the mu 1 (OPRM1) and delta 1 (OPRD1) opioid receptors: Luminescence-based cell-based high throughput dose response assay to identify agonists of OPRD1 homodimerization. [Related pubchem assays (depositor defined):AID504326, AID504355, AID504692, AID504904, AID504905]; assay type: functional
BJ [26] = assay: cells; assay type: functional, cell-based; conditions: Homo sapiens
[27] = target: Luciferin 4-monooxygenase (Photinus pyralis, UniProt P08659); assay: firefly luciferase enzyme inhibitors, dose response, biochemical, luminescence (AID 1891)
Mu-type opioid receptor = Mu-type opioid receptor (Homo sapiens, UniProt P35372); assay: Counterscreen for agonists of heterodimerization of the mu 1 (OPRM1) and delta 1 (OPRD1) opioid receptors: Luminescence-based cell-based high throughput dose response assay to identify agonists of OPRM1 homodimerization.; assay type: functional;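 note: U2OS cells expressing OPRM1 and beta-arrestin as split beta-galactosidase partners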
[28] = cytotoxicity toward DRD oncogenic fibroblasts, dose response, cell-based, non-viral oncogenic, luminescence (AID 1934); assay type: functional; conditions: Homo sapiens
BJ [29] = assay: cytotoxicity toward Ras-transformed BJeLR fibroblasts, dose response, cell-based, alamar blue fluorescence, cherrypicked samples (AID 2631); assay type: functional; conditions: Homo sapiens;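 note: confirmatory dose-response assay in RAS-dependent BJ fibroblasts engineered with TERT, LT and ST, with cytotoxicity read by fluorescence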
[30] = target: 5-hydroxytryptamine receptor 5A (Homo sapiens, UniProt P47898); assay: Counterscreen for agonists of OPRM1-OPRD1 heterodimerization: luminescence-based cell-based high throughput dose response assay to identify agonists of 5-hydroxytryptamine (serotonin) 5A receptor (HTR5A). [Related pubchem assays (depositor defined):AID504326, AID504355, AID504692, AID504904, AID504905]; assay type: functional
BJ [31] = assay: cytotoxicity toward BJ-TERT fibroblasts, dose response, cell-based, RAS-independent, luminescence (AID 1933); assay type: functional; conditions: Homo sapiens

Chain of CAAX prenyl protease 2 (Q9Y256 whole entry): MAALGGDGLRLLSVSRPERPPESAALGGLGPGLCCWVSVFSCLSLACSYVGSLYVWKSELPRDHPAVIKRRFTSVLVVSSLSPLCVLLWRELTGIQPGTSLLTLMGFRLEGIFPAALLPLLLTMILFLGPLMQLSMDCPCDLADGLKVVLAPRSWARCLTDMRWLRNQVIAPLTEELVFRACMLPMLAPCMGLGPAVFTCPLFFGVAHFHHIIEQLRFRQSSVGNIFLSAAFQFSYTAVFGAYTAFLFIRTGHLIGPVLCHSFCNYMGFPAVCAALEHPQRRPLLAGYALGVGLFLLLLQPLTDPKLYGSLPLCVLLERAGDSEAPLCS
Chain of Delta-type opioid receptor (P41143 whole entry): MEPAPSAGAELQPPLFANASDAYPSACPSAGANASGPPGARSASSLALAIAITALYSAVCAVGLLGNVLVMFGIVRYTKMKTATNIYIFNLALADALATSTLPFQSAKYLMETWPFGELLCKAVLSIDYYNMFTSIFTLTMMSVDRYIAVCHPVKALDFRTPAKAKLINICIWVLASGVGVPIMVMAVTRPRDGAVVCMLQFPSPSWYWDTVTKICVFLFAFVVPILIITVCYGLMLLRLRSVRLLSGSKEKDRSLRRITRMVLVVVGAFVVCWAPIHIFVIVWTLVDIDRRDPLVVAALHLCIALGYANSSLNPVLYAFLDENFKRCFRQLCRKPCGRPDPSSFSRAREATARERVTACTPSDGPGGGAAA
Chain of 5-hydroxytryptamine receptor 5A (P47898 whole entry): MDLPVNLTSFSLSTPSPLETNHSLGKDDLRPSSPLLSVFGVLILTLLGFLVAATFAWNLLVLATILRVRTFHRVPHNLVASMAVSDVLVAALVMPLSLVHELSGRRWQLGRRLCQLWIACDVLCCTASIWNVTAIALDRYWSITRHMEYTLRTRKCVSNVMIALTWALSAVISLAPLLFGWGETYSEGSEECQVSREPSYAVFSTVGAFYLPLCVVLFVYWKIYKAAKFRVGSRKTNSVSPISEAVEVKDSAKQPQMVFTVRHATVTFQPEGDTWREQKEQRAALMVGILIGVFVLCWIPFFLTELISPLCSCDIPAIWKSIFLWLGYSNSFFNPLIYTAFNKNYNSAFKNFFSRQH
Chain of Dual specificity protein phosphatase 3 (P51452 whole entry): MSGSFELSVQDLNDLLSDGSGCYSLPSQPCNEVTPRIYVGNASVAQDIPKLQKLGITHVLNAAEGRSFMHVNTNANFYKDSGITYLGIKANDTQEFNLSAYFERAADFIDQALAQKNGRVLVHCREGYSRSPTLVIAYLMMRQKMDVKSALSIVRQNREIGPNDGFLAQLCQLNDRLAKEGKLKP
Chain of Glycogen synthase kinase-3 alpha (P49840 whole entry): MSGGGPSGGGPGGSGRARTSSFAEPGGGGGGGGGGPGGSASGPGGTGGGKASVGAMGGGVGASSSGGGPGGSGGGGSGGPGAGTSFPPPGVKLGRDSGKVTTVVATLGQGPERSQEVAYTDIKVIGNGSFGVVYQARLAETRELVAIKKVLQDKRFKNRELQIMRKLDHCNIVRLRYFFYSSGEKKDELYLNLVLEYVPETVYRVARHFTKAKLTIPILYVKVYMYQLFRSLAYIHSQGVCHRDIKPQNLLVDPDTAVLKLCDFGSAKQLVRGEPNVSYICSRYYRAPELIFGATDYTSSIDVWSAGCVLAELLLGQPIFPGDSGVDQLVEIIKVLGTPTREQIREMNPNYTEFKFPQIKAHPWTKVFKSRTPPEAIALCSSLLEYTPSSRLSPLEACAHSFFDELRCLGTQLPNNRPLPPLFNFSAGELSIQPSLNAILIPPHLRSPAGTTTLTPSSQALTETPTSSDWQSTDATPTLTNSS
Chain of Trypsin (P00761 whole entry): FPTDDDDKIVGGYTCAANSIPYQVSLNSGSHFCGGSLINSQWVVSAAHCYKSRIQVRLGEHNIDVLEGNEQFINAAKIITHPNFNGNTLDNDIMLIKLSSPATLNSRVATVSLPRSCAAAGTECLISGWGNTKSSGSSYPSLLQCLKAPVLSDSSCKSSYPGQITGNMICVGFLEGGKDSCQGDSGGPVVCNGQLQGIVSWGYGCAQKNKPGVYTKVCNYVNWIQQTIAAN
Chain of Phosphomannomutase 2 (O15305 whole entry): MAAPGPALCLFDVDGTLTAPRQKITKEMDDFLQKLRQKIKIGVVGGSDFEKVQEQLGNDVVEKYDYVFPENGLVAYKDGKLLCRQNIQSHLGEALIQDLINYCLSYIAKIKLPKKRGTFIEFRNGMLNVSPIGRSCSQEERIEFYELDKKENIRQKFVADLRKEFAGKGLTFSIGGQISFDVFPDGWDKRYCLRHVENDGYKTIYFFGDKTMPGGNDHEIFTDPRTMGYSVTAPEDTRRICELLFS
Chain of Phosphoethanolamine/phosphocholine phosphatase (Q8TCT1 whole entry): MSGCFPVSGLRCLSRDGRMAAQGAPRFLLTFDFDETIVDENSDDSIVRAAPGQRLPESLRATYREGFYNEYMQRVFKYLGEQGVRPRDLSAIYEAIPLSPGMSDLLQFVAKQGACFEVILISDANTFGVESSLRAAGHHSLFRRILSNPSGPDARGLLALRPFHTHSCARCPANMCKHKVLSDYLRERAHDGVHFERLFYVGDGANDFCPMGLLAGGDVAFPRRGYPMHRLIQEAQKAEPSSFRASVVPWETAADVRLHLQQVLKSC
Chain of CAAX prenyl protease 1 (P47154 whole entry): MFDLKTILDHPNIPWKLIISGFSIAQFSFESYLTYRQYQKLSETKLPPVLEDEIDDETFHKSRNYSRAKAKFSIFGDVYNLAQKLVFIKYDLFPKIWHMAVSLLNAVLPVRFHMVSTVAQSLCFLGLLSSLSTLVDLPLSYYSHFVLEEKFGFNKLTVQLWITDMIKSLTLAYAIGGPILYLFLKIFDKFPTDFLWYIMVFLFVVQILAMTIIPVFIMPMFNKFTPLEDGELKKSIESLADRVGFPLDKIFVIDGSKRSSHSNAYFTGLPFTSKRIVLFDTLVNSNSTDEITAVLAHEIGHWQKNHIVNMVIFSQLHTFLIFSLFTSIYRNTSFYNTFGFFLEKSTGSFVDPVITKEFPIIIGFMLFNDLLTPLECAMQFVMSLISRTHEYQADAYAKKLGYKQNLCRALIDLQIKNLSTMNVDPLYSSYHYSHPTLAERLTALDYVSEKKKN
Chain of Nucleotide-binding oligomerization domain-containing protein 2 (Q9HC29 whole entry, the tested form may be a part): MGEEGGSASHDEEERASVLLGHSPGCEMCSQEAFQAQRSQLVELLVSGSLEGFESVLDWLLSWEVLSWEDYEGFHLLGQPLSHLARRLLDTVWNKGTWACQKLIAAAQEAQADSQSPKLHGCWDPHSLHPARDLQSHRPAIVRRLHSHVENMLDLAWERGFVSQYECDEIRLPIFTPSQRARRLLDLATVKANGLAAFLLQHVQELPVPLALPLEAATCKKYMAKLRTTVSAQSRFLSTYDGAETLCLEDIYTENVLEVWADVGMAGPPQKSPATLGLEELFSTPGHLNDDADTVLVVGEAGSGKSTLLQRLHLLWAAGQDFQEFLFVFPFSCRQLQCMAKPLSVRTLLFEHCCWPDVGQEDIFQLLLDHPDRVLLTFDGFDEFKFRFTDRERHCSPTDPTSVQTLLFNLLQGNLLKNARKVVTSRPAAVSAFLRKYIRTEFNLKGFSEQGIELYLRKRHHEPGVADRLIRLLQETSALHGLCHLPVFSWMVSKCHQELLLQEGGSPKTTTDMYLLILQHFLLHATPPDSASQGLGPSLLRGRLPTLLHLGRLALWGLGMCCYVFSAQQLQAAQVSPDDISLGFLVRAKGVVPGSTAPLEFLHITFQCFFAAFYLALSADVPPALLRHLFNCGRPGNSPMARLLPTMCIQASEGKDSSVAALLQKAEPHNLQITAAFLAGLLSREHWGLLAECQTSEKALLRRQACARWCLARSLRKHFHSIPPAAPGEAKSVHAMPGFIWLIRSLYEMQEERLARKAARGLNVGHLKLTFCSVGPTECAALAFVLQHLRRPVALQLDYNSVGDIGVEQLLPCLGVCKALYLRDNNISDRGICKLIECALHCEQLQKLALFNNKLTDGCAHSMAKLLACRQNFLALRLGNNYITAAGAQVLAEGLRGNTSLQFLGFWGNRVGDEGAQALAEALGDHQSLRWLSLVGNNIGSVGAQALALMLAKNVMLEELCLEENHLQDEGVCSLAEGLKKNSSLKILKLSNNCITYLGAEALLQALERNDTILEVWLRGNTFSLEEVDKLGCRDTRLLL
Chain of Dual specificity protein kinase CLK1 (P49759 whole entry): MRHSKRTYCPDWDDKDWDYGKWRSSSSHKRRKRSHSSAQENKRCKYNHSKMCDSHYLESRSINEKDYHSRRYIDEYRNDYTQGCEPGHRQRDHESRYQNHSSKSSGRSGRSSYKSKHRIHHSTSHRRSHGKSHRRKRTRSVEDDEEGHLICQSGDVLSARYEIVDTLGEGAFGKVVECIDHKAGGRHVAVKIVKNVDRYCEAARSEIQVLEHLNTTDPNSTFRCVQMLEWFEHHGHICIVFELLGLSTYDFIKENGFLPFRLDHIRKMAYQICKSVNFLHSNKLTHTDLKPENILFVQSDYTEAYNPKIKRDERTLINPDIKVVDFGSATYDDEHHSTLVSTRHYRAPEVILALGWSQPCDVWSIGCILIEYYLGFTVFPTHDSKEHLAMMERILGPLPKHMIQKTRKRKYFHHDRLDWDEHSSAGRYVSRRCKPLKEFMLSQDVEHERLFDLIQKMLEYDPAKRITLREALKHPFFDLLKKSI
Chain of Mu-type opioid receptor (P35372 whole entry): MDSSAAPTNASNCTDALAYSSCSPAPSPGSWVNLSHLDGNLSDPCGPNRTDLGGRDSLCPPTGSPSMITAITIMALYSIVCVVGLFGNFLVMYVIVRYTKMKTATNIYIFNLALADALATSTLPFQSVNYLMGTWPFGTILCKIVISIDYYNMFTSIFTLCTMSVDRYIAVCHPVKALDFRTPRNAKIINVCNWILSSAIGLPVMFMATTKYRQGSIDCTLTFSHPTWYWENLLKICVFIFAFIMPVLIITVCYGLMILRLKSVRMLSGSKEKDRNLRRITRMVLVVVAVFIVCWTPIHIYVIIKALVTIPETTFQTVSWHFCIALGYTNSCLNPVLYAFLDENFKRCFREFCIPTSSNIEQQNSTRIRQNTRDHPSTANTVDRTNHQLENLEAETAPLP

C=CCN(C(=O)CNC(=O)c1ccco1)C(C(=O)NC1CCCCC1)c1ccccc1 (stereo not given)
AC50 [1]: 101 µM (active)

CC1CCN(c2oc(-c3ccccc3Cl)nc2C#N)CC1
AC50 (HeLa): 73 µM (active)

CC(Sc1nnc(Nc2ccccc2)s1)C(=O)Nc1nc(-c2ccccc2)cs1 (stereo not given)
CC50 [2]: > 50 µM (active) | IC50 (Vero): > 25 µM (active)

O=C(NCCNc1ccccc1[N+](=O)[O-])c1cc(F)c(F)cc1Cl
AC50 (A-375 [3]): > 11 µM (active) | AC50 (A-375 [4]): > 11 µM (active)

O=C(Nc1ccc2oc(-c3cccnc3)nc2c1)c1ccc([N+](=O)[O-])o1
IC50 (HEK293 [5]): > 20 µM (inactive) | AC50 [6]: 14.2 µM (active) | IC50 (HEK293 [7]): 51.5 µM (inactive) | IC50 (Jurkat): 38.7 µM (inactive) | EC50 [8]: > 20 µM (inactive) | IC50 (HEK293 [9]): 4.02 µM (active) | EC50 (HEK293 [10]): 7.26 µM (active) | IC50 (HEK293 [11]): > 80 µM (inactive) | IC50 (HEK293 [12]): > 20 µM (inactive) | IC50 (HEK293 [13]): 7.39 µM (active)

Fc1c(-c2ccc3ncnc(NCc4cccs4)c3c2)ccc2c1OCO2
AC50 [14]: 0.057 µM (active)

Cc1cc(Cl)c(S(=O)(=O)NC(C(=O)O)C(C)C)cc1OCC(=O)NC1CCCCC1 (stereo not given)
AC50 (Escherichia coli [15]): 25.9 µM (active)

CCOC(=O)c1nnn(-c2nonc2N)c1CSc1ccc(C)cc1
AC50 [16]: 1.19 µM (active) | AC50 [17]: 8.32 µM (active)

CC(Oc1ccc2c3c(c(=O)oc2c1)CCCC3)C(=O)NC1CC(C)(C)NC(C)(C)C1 (stereo not given)
AC50 (CAAX prenyl protease 2): 16.2 µM (active) | AC50 (CAAX prenyl protease 1): 2.88 µM (active) | AC50 (Trypsin): 9.81 µM (active)

O=C1c2ccccc2C(=O)c2c1ccc1c(=O)n(-c3ccccc3)sc21
IC50 [18]: > 50 µM (inactive) | IC50 [19]: 1.96 µM (inactive) | IC50 (Phosphomannomutase 2): > 100 µM (inactive)

COc1ccc(S(=O)(=O)N2CCN(CC(=O)Nc3c(C)n[nH]c3C)CC2)cc1OC
AC50 (Escherichia coli [20]): 62.1 µM (active)

COc1ccc(C(=O)C2CCCN(CC3CCCCC3)C2)cc1OC (stereo not given)
EC50 [21]: 0.452 µM (active)

C[C@@H]1CN([C@H](C)CO)C(=O)c2cccc(NC(=O)Nc3ccccc3)c2O[C@H]1CN(C)S(=O)(=O)c1ccc(F)cc1
AC50 (INS1): 38.3 µM (active)

COc1cccc2sc(NC(=O)c3ccccc3)nc12
IC50 [22]: > 66 µM (inactive)

Cc1occc1C(=O)N/N=C/c1ccc(-c2ccccc2)cc1
EC50 [23]: 0.897 µM (active) | EC50 (BJ [24]): 10.3 µM (active) | EC50 [25]: > 92.4 µM (inactive) | EC50 (BJ [26]): 3.14 µM (active) | EC50 [27]: 0.151 µM (active) | EC50 (Mu-type opioid receptor): > 92.4 µM (inactive) | EC50 [28]: 3.41 µM (active) | EC50 (BJ [29]): > 133 µM (inactive) | EC50 [30]: > 92.4 µM (inactive) | EC50 (BJ [31]): 4.43 µM (active)
